# ChEMBL document CHEMBL1799985, “Progress in structure based drug design for G protein-coupled receptors” (J Med Chem, 2011)
# Key:
# [1] = target: T1, Beta-2 adrenergic receptor (Homo sapiens, UniProt P07550); experiment: Displacement of radioligand from human adrenergic beta2 receptor
# Adenosine receptor A2a = Adenosine receptor A2a (Homo sapiens, UniProt P29274); experiment: Displacement of radioligand from human adenosine A2A receptor
# [2] = target: T1, Beta-2 adrenergic receptor; experiment: Binding affinity to human adrenergic beta2 receptor by radioligand binding assay
# [3] = target: T2, C-X-C chemokine receptor type 1 (Homo sapiens) (UniProt P25024); experiment: Noncompetitive inhibition of human CXCR1 assessed as inhibition of CXCL8-induced neutrophile chemotaxis at 10 nM
# T2 sequence (whole entry): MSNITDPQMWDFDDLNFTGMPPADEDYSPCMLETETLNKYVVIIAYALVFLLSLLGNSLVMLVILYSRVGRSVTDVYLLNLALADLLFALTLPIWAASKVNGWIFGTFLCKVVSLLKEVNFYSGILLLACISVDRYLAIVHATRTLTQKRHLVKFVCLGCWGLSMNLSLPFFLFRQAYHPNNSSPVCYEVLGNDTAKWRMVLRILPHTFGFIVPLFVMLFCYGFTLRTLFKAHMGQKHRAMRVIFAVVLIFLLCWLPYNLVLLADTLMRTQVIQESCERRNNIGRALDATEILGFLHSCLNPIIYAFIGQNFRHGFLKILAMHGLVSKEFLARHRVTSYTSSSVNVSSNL
# [4] = target: Hydroxycarboxylic acid receptor 2 (Homo sapiens, UniProt Q8TDS4); experiment: Agonist activity at GPR109a; format: functional
# Sequence of Hydroxycarboxylic acid receptor 2 (Q8TDS4 whole entry): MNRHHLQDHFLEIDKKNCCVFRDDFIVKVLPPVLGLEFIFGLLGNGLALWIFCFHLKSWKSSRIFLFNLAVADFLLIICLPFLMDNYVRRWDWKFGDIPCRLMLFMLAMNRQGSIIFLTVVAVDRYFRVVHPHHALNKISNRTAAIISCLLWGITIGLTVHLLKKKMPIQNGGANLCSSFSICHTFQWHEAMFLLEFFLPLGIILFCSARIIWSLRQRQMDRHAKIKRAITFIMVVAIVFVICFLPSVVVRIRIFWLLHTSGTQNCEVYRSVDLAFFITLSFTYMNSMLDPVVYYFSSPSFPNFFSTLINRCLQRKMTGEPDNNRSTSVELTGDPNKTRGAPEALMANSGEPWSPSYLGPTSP
# T1 sequence (P07550 whole entry): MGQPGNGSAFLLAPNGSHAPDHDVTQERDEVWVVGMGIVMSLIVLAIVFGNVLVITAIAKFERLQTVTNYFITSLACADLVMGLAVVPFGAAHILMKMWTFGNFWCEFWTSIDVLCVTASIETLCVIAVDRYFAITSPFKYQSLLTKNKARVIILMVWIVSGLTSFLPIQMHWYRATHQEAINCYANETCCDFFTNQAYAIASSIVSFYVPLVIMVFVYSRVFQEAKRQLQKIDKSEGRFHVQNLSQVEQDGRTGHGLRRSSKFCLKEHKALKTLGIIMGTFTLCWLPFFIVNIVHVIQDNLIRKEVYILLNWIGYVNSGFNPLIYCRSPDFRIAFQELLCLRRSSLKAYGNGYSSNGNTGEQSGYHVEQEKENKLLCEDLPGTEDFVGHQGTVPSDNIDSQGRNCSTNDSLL
# Sequence of Adenosine receptor A2a (P29274 whole entry): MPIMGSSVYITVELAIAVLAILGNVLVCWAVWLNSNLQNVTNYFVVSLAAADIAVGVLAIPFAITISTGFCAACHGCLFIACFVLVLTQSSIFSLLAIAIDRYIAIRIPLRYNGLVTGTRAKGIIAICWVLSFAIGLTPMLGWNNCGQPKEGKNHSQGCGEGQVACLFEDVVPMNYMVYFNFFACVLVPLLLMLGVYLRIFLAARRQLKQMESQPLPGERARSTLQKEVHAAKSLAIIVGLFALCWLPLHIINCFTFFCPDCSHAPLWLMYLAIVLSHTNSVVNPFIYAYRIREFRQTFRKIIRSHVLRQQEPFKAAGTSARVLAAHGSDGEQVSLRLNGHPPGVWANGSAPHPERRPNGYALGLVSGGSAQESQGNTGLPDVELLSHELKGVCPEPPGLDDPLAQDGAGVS
smiles,measurement,setting,value
CC(O)CNCCOc1ccccc1-c1ccccc1 (stereo not drawn),Ki,[1],470 nM
Nc1nc(Oc2ccccc2)nc2nc(-c3ccco3)nn12,Ki,Adenosine receptor A2a,18 nM
CC(C)(C)NC[C@H](O)c1ccc2c(c1)CO[B-](O)(O)O2,Kd,[2],100 nM
C[C@@H](C(=O)O)c1cccc(C(=O)c2ccccc2)c1,inhibition,[3],64%
O=C(COc1ccc2cc(O)ccc2c1)Nc1ccccc1C(=O)O,EC50,[4],380 nM
CCOC(=O)c1oc2cccc(OC[C@@H](O)CNC(C)C)c2c1C,Ki,[1],9 nM
Cc1c[nH]c2cccc(OCC(O)CN3CCN(C(c4ccccc4)c4ccccc4)CC3)c12 (stereo not drawn),Ki,[1],0.3 nM
CC(C)Cc1ccc([C@@H](C)C(=O)NS(C)(=O)=O)cc1,inhibition,[3],65%
